# Test results as given in publication PMC10041525, “New Dual Inhibitors of Bacterial Topoisomerases with Broad-Spectrum Antibacterial Activity and In Vivo Efficacy against Vancomycin-Intermediate Staphylococcus aureus” (Journal of Medicinal Chemistry, 2023).
# “And” between values parts separate entries of the source, which are not always exact repeats. Equal values may be shown once.
# What was measured:
# [1] = system: Neisseria gonorrhoeae (n = 12); assay: MIC broth microdilution at IHMA Europe; format: cell-based
# [2] = system: S. pneumoniae ATCC 49619; design: method as in earlier work; settings: QC range for S. pneumoniae ATCC 49619, ref CLSI; cited from earlier work
# [3] = system: P. aeruginosa ATCC 27853; assay: IHMA QC MIC; format: cell-based
# [4] = system: E. faecium (n = 13); assay: MIC broth microdilution at IHMA Europe; format: cell-based
# [5] = system: Haemophilus influenzae (n = 14); assay: MIC broth microdilution at IHMA Europe; format: cell-based, H. influenzae
# [6] = system: N. gonorrhoeae ATCC 49226; design: method as in earlier work; settings: QC range for N. gonorrhoeae ATCC 49226, ref CLSI; cited from earlier work
# [7] = system: S. pneumoniae ATCC 49619; assay: IHMA QC MIC; format: cell-based
# Source text: (§1) Supplement jm2c01905_si_004.xlsx, sheet "QC" | column: MIC [µg/mL]
# [8] = system: H. influenzae ATCC 49766; assay: IHMA QC MIC; format: cell-based
# Source text: as §1
# [9] = system: H. influenzae ATCC 49247; assay: IHMA QC MIC; format: cell-based
# Source text: as §1
# [10] = system: N. gonorrhoeae ATCC 49226; assay: IHMA QC MIC; format: cell-based; settings: QC strain N. gonorrhoeae ATCC 49226, test date 2021-11-18
# Source text: as §1
# [11] = system: E. faecalis ATCC 29212; assay: IHMA QC MIC; format: cell-based
# Source text: as §1
# [12] = system: E. coli ATCC 25922; assay: IHMA QC MIC; format: cell-based
# [13] = system: S. pneumoniae (n = 12); assay: MIC broth microdilution at IHMA Europe; format: cell-based
# [14] = system: E. faecalis ATCC 29212; design: method as in earlier work; settings: QC range for E. faecalis ATCC 29212, ref CLSI; cited from earlier work
# [15] = system: Chinese hamster ovary K1 cells; assay: in vitro micronucleus test; settings: with S9, 150 µM
# [16] = system: Chinese hamster ovary K1 cells; settings: 150 µM
compound,measurement,setting,value
penicillin,Cumulative % at MIC,[1]; MIC 0.5 µg/mL,33.3%
same,No. of isolates at MIC,[1]; MIC 0.5 µg/mL,2
same,Cumulative % at MIC,[1]; MIC 1 µg/mL,50.0%
same,No. of isolates at MIC,[1]; MIC 1 µg/mL,2
same,Cumulative % at MIC,[1]; MIC 2 µg/mL,75.0%
same,No. of isolates at MIC,[1]; MIC 2 µg/mL,3
same,Cumulative % at MIC,[1]; MIC >16 µg/mL,100.0%
same,No. of isolates at MIC,[1]; MIC >16 µg/mL,2
same,Cumulative % at MIC,[1]; MIC […],16.7%
same,No. of isolates at MIC,[1]; MIC […],2
same,Cumulative % at MIC,[1]; MIC […] µg/mL,83.3%
same,No. of isolates at MIC,[1]; MIC […] µg/mL,1
same,MIC,[1]; isolate IHMA 1123853,4 µg/mL
same,MIC,[1]; isolate IHMA 1130935,0.25 µg/mL
same,MIC,[1]; isolate IHMA 1130989,0.25 µg/mL
same,MIC,[1]; isolate IHMA 1130991,2 µg/mL
same,MIC,[1]; isolate IHMA 1137292,1 µg/mL
same,MIC,[1]; isolate IHMA 1145734,2 µg/mL
same,MIC,[1]; isolate IHMA 1145735,>16 µg/mL
same,MIC,[1]; isolate IHMA 1165897,>16 µg/mL
same,MIC,[1]; isolate IHMA 1194748,0.5 µg/mL
same,MIC,[1]; isolate IHMA 1194750,0.5 µg/mL
same,MIC,[1]; isolate IHMA 1546199,2 µg/mL
same,MIC,[1]; isolate IHMA 1546215,1 µg/mL
same,"MIC, CLSI Range",[2],"0,25 - 1 µg/mL"
same,MIC,"[3]; QC strain P. aeruginosa ATCC 27853, test date 2021-11-11",>32 µg/mL and 32 µg/mL
same,MIC,"[3]; QC strain P. aeruginosa ATCC 27853, test date 2021-11-26",>32 µg/mL
same,MIC,[4]; E. faecium IHMA N° 1764866,>32 µg/mL
same,MIC,[4]; E. faecium IHMA N° 1765436,>32 µg/mL
same,MIC,[4]; E. faecium IHMA N° 1765746,>32 µg/mL
same,MIC,[4]; E. faecium IHMA N° 1893573,>32 µg/mL
same,MIC,[4]; E. faecium IHMA N° 1893846,>32 µg/mL
same,MIC,[4]; E. faecium IHMA N° 1893942,>32 µg/mL
same,MIC,[4]; E. faecium IHMA N° 1894055,>32 µg/mL
same,MIC,[4]; E. faecium IHMA N° 1897027,>32 µg/mL
same,MIC,[4]; E. faecium IHMA N° 1897101,>32 µg/mL
same,MIC,[4]; E. faecium IHMA N° 1904592,>32 µg/mL
same,MIC,[4]; E. faecium IHMA N° 2075051,>32 µg/mL
same,MIC,[4]; E. faecium IHMA N° 2077718,>32 µg/mL
same,MIC,[4]; E. faecium IHMA N° 2083787,>32 µg/mL
same,Cumulative % at MIC,[4]; MIC >32 µg/mL,100.0%
same,No. of isolates at MIC,[4]; MIC >32 µg/mL,13
same,MIC,[5]; H. influenzae IHMA N° 1227715,32 µg/mL
same,MIC,[5]; H. influenzae IHMA N° 1241620,16 µg/mL
same,MIC,[5]; H. influenzae IHMA N° 1244149,32 µg/mL
same,MIC,[5]; H. influenzae IHMA N° 1249803,4 µg/mL
same,MIC,[5]; H. influenzae IHMA N° 1254355,4 µg/mL
same,MIC,[5]; H. influenzae IHMA N° 1258580,16 µg/mL
same,MIC,[5]; H. influenzae IHMA N° 1262734,16 µg/mL
same,MIC,[5]; H. influenzae IHMA N° 1272723,16 µg/mL
same,MIC,[5]; H. influenzae IHMA N° 1286846,16 µg/mL
same,MIC,[5]; H. influenzae IHMA N° 1337530,32 µg/mL
same,MIC,[5]; H. influenzae IHMA N° 1440085,16 µg/mL
same,MIC,[5]; H. influenzae IHMA N° 1479509,16 µg/mL
same,MIC,[5]; H. influenzae IHMA N° 1952952,8 µg/mL
same,MIC,[5]; H. influenzae IHMA N° 2047461,>32 µg/mL
same,Cumulative % at MIC,[5]; MIC […] µg/mL,71.4%
same,No. of isolates at MIC,[5]; MIC […] µg/mL,7
same,Cumulative % at MIC,[5]; MIC 32 µg/mL,92.9%
same,No. of isolates at MIC,[5]; MIC 32 µg/mL,3
same,Cumulative % at MIC,[5]; MIC >32 µg/mL,100.0%
same,No. of isolates at MIC,[5]; MIC >32 µg/mL,1
same,"MIC, CLSI Range",[6],"0,25 - 1 µg/mL"
same,MIC,"[7]; QC strain S. pneumoniae ATCC 49619, test date 2021-11-11",0.25 µg/mL
same,MIC,"[7]; QC strain S. pneumoniae ATCC 49619, test date 2021-11-26",0.25 µg/mL
same,MIC,"[8]; QC strain H. influenzae ATCC 49766, test date 2021-11-11",0.25 µg/mL
same,MIC,"[8]; QC strain H. influenzae ATCC 49766, test date 2021-11-26",0.25 µg/mL
same,MIC,"[9]; QC strain H. influenzae ATCC 49247, test date 2021-11-11",4 µg/mL and 8 µg/mL
same,MIC,"[9]; QC strain H. influenzae ATCC 49247, test date 2021-11-26",4 µg/mL
same,MIC,[10],0.25 µg/mL
same,MIC,"[11]; QC strain E. faecalis ATCC 29212, test date 2021-11-11",2 µg/mL
same,MIC,"[11]; QC strain E. faecalis ATCC 29212, test date 2021-11-26",2 µg/mL
same,MIC,"[12]; QC strain E. coli ATCC 25922, test date 2021-11-11",32 µg/mL and 16 µg/mL
same,MIC,"[12]; QC strain E. coli ATCC 25922, test date 2021-11-26",32 µg/mL
same,Cumulative % at MIC,[13]; MIC 0.5 µg/mL,25.0%
same,No. of isolates at MIC,[13]; MIC 0.5 µg/mL,2
same,Cumulative % at MIC,[13]; MIC 1 µg/mL,41.7%
same,No. of isolates at MIC,[13]; MIC 1 µg/mL,2
same,Cumulative % at MIC,[13]; MIC 2 µg/mL,83.3%
same,No. of isolates at MIC,[13]; MIC 2 µg/mL,5
same,Cumulative % at MIC,[13]; MIC […] µg/mL,100.0%
same,No. of isolates at MIC,[13]; MIC […] µg/mL,2
same,Cumulative % at MIC,[13]; MIC ≤0.03 µg/mL,8.3%
same,No. of isolates at MIC,[13]; MIC ≤0.03 µg/mL,1
same,MIC,[13]; S. pneumoniae IHMA N° 1775387,2 µg/mL
same,MIC,[13]; S. pneumoniae IHMA N° 1776057,1 µg/mL
same,MIC,[13]; S. pneumoniae IHMA N° 1785617,4 µg/mL
same,MIC,[13]; S. pneumoniae IHMA N° 1800765,0.5 µg/mL
same,MIC,[13]; S. pneumoniae IHMA N° 1811259,1 µg/mL
same,MIC,[13]; S. pneumoniae IHMA N° 1831562,"≤0,03 µg/mL"
same,MIC,[13]; S. pneumoniae IHMA N° 1902609,2 µg/mL
same,MIC,[13]; S. pneumoniae IHMA N° 1979675,2 µg/mL
same,MIC,[13]; S. pneumoniae IHMA N° 1991963,2 µg/mL
same,MIC,[13]; S. pneumoniae IHMA N° 2057487,2 µg/mL
same,MIC,[13]; S. pneumoniae IHMA N° 2073087,4 µg/mL
same,MIC,[13]; S. pneumoniae IHMA N° 2117109,0.5 µg/mL
same,"MIC, CLSI Range",[14],1 to 4 µg/mL
c1ccc2c(c1)cc1ccc3cccc4ccc2c1c34 [Benzo[a]pyrene],No. binucleate cells,[15],1702
same,% Cytostasis,[16],8.3%
